Ki data for 7 molecules are collected here from BindingDB's records for doi:10.1016/s0028-3908(00)00128-3 (University of Toronto, 2001).

For this assay, the target named is Metabotropic glutamate receptor 8 (Rattus norvegicus, UniProt P70579).
Sequence of Metabotropic glutamate receptor 8 (P70579 whole entry): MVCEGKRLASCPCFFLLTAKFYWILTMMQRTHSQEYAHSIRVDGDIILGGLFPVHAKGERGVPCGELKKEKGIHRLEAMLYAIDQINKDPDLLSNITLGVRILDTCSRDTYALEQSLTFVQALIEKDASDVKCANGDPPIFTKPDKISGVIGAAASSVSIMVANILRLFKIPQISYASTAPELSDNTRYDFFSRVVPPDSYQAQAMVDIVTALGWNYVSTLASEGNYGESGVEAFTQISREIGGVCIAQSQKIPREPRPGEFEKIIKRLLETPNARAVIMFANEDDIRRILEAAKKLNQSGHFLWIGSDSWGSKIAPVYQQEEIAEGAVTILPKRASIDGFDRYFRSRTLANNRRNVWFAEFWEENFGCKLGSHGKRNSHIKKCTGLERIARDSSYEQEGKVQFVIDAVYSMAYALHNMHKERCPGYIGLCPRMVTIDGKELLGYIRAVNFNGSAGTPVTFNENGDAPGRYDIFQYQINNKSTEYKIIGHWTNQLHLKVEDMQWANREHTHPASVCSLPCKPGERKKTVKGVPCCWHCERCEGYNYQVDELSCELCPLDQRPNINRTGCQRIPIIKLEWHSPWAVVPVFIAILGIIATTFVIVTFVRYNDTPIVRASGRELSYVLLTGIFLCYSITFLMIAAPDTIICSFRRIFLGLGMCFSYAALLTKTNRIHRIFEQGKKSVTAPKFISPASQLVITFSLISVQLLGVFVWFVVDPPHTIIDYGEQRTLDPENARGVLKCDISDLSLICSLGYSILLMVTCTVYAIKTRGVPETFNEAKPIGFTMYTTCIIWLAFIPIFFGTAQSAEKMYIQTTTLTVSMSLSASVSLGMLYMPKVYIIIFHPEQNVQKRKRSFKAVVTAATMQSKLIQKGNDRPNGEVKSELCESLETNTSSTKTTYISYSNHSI

Take `N[C@@H](COP(=O)(O)O)C(=O)O`: affinity was put at a Ki of 1200 nM.
As for `CC(N)(C(=O)O)c1ccc(P(=O)(O)O)cc1` (configuration not stated), the figure is 480 nM.
To `C[C@@](N)(C(=O)O)c1ccc(C(=O)O)cc1` (racemic) belongs over 10000 nM; to `N[C@@H](CCP(=O)(O)O)C(=O)O` [2-Amino-4-phosphono-butyric acid], 2700 nM; to `NC(C(=O)O)c1ccc(P(=O)(O)O)cc1` (configuration not stated) [Amino-(4-phosphono-phenyl)-acetic acid(RS-PPG)], 1300 nM.
As to `N[C@H](CCP(=O)(O)O)C(=O)O` [D-AP4], the Ki was over 10000 nM.
To `NC(CCC(=O)O)C(=O)O` (configuration not stated) [glutamic acid dianion] belongs over 10000 nM.

The term Ki denotes the dissociation constant of the complex between target and ligand, obtained from inhibition or displacement. A higher Ki goes with a looser hold on the target.
